Assay results published in patent publication US8268818B2, “Inhibitors of C-MET and uses thereof” (Vertex Pharmaceuticals Incorporated, priority 2006, dated 2012).

Legend:
PI3Kγ [1] = target: T1, PI3Kγ (Homo sapiens, UniProt P48736); assay: PI3K inhibition assay, Protocol A (33P incorporation, hydrophobic membrane filter plate); format: biochemical; conditions: 40 μM ATP, 65 μM PI(4,5)P2 diC8, 75 nM PI3Kγ, average if more than one result, read-out: PI3Kγ enzyme inhibition Ki
Procedure: Compounds were screened for their ability to inhibit PI3Kγ using one of the assays below. To each well of a 96 well polystyrene plate [Corning, Costar Item No. 3696], was added 1.5 μl of a compound of the invention (at various concentrations) along with 28.5 W of kinase buffer [50 mM HEPES (pH 7.4), 5 mM DTT, 5 mM MgCl2 and 50 mM NaCl] containing 137 μM phosphatidylinositol(4,5) bisphosphate diC8 [PI(4,5)P2; Echelon Biosciences, Cat. No. P-4508] and 158 nM PI3Ky. After mixing, 30 μl of kinase buffer containing 80 μM ATP was added to start the reaction. Final substrate concentrations in the assay were 50 mM HEPES (pH 7.4), 5 mM DTT, 5 mM MgCl2, 50 mM NaCl, 40 μM ATP (200 μCi/μmole ATP), 65 μM PI(4,5)P2 and 75 nM PI3Kγ. After 20 minutes at room temperature (25° C.), the reaction was stopped with 30 μl of kinase buffer containing 150 mM EDTA and 1.5 M ammonium sulfate. Each well of a 96 well hydrophobic membrane filter plate [Millipore, 0.45 μm hydrophobic membrane, Cat. No. […]] was washed with 100 μL wash buffer [50 mM HEPES (pH 7.4), 5 mM DTT, 5 mM MgCl2, 50 mM NaCl, 5 mM EDTA and 0.5 M ammonium sulfate]. 60 μL of the stopped assay was transferred to each well of the filter plate and soaked for 30 minutes. […] The filter plate was allowed to stand overnight prior to determining ^33P incorporation on a Perkin-Elmer Microbeta TriluxTM liquid scintillation counter and luminescence counter. […]

PI3Kγ [2] = target: T1, PI3Kγ; assay: PI3K inhibition assay, Protocol B (33P-ATP, glass fiber filter plate); format: biochemical; conditions: Protocol B; 100 μM ATP, 46 μM PI(4,5)P2 diC16, 16.6 nM PI3Kγ; average if more than one result; read-out: PI3Kγ enzyme inhibition Ki
Procedure: Compounds were screened for their ability to inhibit PI3Kγ using one of the assays below.
To each well of a 96 well polystyrene plate [Corning Costar Item No. 3795], 61 μL of Reaction Mix [55 mM HEPES pH 7.5, 11 mM MgCl2, 27 mM NaCl, 5.5 mM DTT, 0.11 mg/mL BSA, 51 μM phosphatidylinositol(4,5)bisphosphate diC16 (PI(4,5)P2; Avanti Polar Lipids, Cat. No. 840046P) and 18 nM PI3Kγ] was added. Separately, ten 2.5-fold serial dilutions of compounds of the invention were prepared in 100% DMSO with the last two wells reserved for no inhibitor controls (enzyme+no compound and no enzyme control+no compound). 1 μL it of compound or DMSO alone was added by 12-channel hand pipet and incubated for 10 minutes at room temperature (25° C.). To initiate the reaction, 5 μl of ATP Mix [49 mM HEPES pH 7.5 and 1340 ^33P-ATP was added and allowed to incubate for 30 min. at 25° C. Final concentrations of the reaction were 50 mM HEPES 7.5, 10 mM MgCl2, 25 mM NaCl, 5 mM DTT, 0.1 mg/mL BSA, 46 μM PI(4,5)P2, 16.6 nM PI3Kγ, and 100 μM ATP. Final inhibitor concentrations ranged from 10 μM to 1 nM.
After incubation, 60 μL of the reaction was quenched by transferring to 504 of 20% TCA/Water in each well of a 96 well glass fiber filter plate [Millipore Cat. No. MAFBN0B50]. The plate was dried by vacuum and then washed five times in a Bio-Tek Instruments ELX-405 Auto Plate Washer with 150 μL of 5% TCA/Water. 50 μL of scintillation fluid was added to each well and the plate was read immediately on a Perkin-Elmer TopCount™ NXT liquid scintillation counter.
Inhibition data was background subtracted (no enzyme control+no inhibitor control) and fit to the competitive tight binding Ki equation described by Morrison and Stone. [J. F. Morrison and S. R. Stone, Comments Mol. Cell. Biophys. 2 (1985) 347-368].

T1 sequence (P48736 whole entry, species assumed): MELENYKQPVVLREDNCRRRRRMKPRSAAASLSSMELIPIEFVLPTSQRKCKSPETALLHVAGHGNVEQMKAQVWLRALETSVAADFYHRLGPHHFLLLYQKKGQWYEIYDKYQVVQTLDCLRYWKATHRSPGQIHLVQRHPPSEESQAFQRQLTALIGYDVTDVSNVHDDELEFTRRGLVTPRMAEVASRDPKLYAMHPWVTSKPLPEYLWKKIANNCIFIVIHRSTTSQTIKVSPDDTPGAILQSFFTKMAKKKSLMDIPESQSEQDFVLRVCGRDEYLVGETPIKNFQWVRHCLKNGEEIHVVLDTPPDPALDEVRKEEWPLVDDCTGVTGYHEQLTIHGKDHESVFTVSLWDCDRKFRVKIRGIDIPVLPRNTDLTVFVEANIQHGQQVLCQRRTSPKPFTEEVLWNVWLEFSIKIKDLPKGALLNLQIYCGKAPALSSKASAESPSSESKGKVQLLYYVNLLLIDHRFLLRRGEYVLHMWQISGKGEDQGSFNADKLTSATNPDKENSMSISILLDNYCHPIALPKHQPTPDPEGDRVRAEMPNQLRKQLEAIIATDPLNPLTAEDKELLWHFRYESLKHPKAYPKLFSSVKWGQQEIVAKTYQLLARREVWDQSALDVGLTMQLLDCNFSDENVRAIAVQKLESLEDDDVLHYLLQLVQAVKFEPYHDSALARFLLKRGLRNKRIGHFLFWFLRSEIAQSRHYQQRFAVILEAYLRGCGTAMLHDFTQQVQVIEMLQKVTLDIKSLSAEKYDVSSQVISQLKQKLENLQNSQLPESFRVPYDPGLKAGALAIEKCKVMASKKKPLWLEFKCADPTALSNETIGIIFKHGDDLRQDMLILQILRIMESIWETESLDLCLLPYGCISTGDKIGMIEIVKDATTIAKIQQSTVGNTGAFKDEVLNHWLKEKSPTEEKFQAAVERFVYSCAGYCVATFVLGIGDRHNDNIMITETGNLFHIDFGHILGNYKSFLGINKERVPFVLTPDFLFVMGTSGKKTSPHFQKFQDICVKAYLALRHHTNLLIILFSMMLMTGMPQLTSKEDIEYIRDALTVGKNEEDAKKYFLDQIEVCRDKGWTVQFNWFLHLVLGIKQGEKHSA

Row | Ki (PI3Kγ [1]) | Ki (PI3Kγ [2]) | SMILES
1 | 1000 to 5000 nM |  | CCOC(=O)c1ccc(-c2sc(NC(=O)C3CC3)nc2C)o1 [Compound 1, Ethyl 5-(2-(cyclopropanecarboxamido)-4-methylthiazol-5-yl)furan-2-carboxylate]
2 |  | < 100 nM | CC(=O)Nc1nc(C)c(-c2ccc(S(=O)(=O)NCCO)o2)s1 [Compound 22]
3 |  | 100 to 1000 nM | CC(=O)Nc1nc(C)c(-c2ccc(C(=O)N(C)Cc3ccco3)o2)s1 [Compound 2]
